Test systems include OVCAR-4; CAKI-1; ACHN; MDA-N; A549; SF-268; SK-MEL-5; NCI-H226; OVCAR-3; NCI/ADR-RES; KM12; HOP-92; HT-29; IGROV-1; A498; TK-10; RXF 393; MOLT-4.
Holding throughout (assay): NCI-60 cell line screen, 48 h

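Cultured in 96-well plates, cells were exposed to test compound for 48 hours across five concentrations. GI50: concentration for 50% inhibition of growth.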 Active and inactive are the calls of the source. No stated cut-off is given here; in the data, active = GI50 up to about 1.1 µM and inactive = higher.

Take `Cc1c(-c2nc(N)c(C#N)c(N)c2C#N)c(=O)oc2ccccc12`: the GI50 with OVCAR-4 was > 100 µM (inactive); with CAKI-1, > 100 µM (inactive); in the assay with ACHN it was > 100 µM (inactive); with MDA-N, > 100 µM (inactive); in the assay on A549, 45.7 µM (inactive); in the assay with SF-268, > 100 µM (inactive). For the same molecule, the GI50 with SK-MEL-5 was 87.5 µM (inactive); in the assay on NCI-H226 it was > 100 µM (inactive); in the assay with OVCAR-3 it was > 100 µM (inactive); with NCI/ADR-RES, > 100 µM (inactive); in the assay with KM12, 68.4 µM (inactive); with HOP-92, > 100 µM (inactive). The GI50 is 83 µM (inactive) in the assay with HT-29; 9.46 µM (inactive) in the assay with IGROV-1; > 100 µM (inactive) with A498; > 100 µM (inactive) with TK-10; > 100 µM (inactive) in the assay with RXF 393.

Turning to `OCC1OC(n2cnc3c(Cl)nc(Nc4ccccc4)nc32)CC1O` (stereo not drawn), the GI50 with OVCAR-4 is 25.4 µM (inactive); in the assay on MOLT-4, 23.6 µM (inactive); in the assay with CAKI-1 it was 1.77 µM (inactive); in the assay with ACHN, 17.3 µM (inactive); with MDA-N, 75.5 µM (inactive); in the assay with A549 it was 17.7 µM (inactive). The GI50 with SF-268 was 65.6 µM (inactive); with SK-MEL-5 it was > 100 µM (inactive); in the assay on NCI-H226 it was > 100 µM (inactive); with OVCAR-3 it was 75.5 µM (inactive); in the assay on NCI/ADR-RES, > 100 µM (inactive); in the assay with KM12 it was > 100 µM (inactive). For the same molecule, the GI50 in the assay on HOP-92 was 2.74 µM (inactive); in the assay with HT-29 it was > 100 µM (inactive); in the assay with IGROV-1, 25.4 µM (inactive); with A498 it was 70 µM (inactive); with TK-10, > 100 µM (inactive); in the assay on RXF 393, 57.1 µM (inactive).

For the molecule `Brc1ccc(/N=N/c2ccc3ccccc3n2)cc1`, the GI50 with CAKI-1 is 14.1 µM (inactive); with ACHN, 13.5 µM (inactive); in the assay with MDA-N it was 31.8 µM (inactive); in the assay on A549, 46.9 µM (inactive); with SF-268 it was 22.3 µM (inactive); in the assay with SK-MEL-5, 20.7 µM (inactive). For the same molecule, the GI50 in the assay with NCI-H226 is 10.6 µM (inactive); in the assay on NCI/ADR-RES, 33.3 µM (inactive); in the assay with KM12, 62.2 µM (inactive); in the assay on HOP-92, 33.2 µM (inactive); in the assay with HT-29, 47.4 µM (inactive); in the assay on IGROV-1, 21.4 µM (inactive). The figures for the GI50 in the assay on TK-10 and in the assay with RXF 393 were 28 µM (inactive) and 28.2 µM (inactive), respectively.

As for `CC(C)[C@H](O)C(=O)N[C@H]1Cc2ccc3c(c2)[C@]24C5=C(N=C(O5)[C@H](C(C)C)NC1=O)c1nc(Cl)c(o1)-c1c(Cl)[nH]c5cccc(c15)-c1cccc2c1N[C@H]4O3`, the GI50 in the assay with OVCAR-4 was 1.57 µM (inactive); in the assay with MOLT-4 it was 0.001 µM (active); in the assay on CAKI-1 it was 0.0968 µM (active); in the assay with ACHN, 0.0469 µM (active); with MDA-N, 0.00162 µM (active); in the assay on A549, 0.0148 µM (active). In addition, the GI50 is 0.00513 µM (active) in the assay with SF-268; 0.0103 µM (active) in the assay with SK-MEL-5; 0.00346 µM (active) in the assay on NCI-H226; 0.00253 µM (active) in the assay with OVCAR-3; 0.257 µM (active) in the assay with NCI/ADR-RES; 0.00607 µM (active) in the assay on KM12. The GI50 in the assay on HOP-92 was 0.00693 µM (active); with HT-29, 0.0111 µM (active); with IGROV-1, 0.00342 µM (active); in the assay with A498 it was 1.27 µM (inactive); in the assay with TK-10, 0.0818 µM (active).

In the case of `CNc1nnc(CCCCCCCCc2nnc(NC)o2)o1`, the GI50 in the assay with OVCAR-4 is > 100 µM (inactive); in the assay on MOLT-4 it was 34.7 µM (inactive); in the assay with CAKI-1, 14.8 µM (inactive); in the assay on ACHN, > 100 µM (inactive); in the assay on MDA-N it was > 100 µM (inactive); in the assay on A549, > 100 µM (inactive). For the same molecule, the GI50 with SK-MEL-5 was > 100 µM (inactive); in the assay on NCI-H226, > 100 µM (inactive); in the assay on OVCAR-3, 25.9 µM (inactive); with NCI/ADR-RES it was > 100 µM (inactive); with KM12, > 100 µM (inactive); with HOP-92 it was > 100 µM (inactive). In addition, the GI50 was 29.9 µM (inactive) in the assay on HT-29; > 100 µM (inactive) with IGROV-1; > 100 µM (inactive) in the assay on A498; > 100 µM (inactive) in the assay with TK-10; > 100 µM (inactive) in the assay on RXF 393.

Source of the values: ChEMBL document CHEMBL1201862, “PubChem BioAssay data set” (2004).
